These results are taken from patent US10495796B2, “Near-infrared cut filter” (AGC INC., priority 2012, dated 2019).

The nature of data set [1]: Solubility of dye to organic solvent. Type of data set: physicochemical. To be noted: 50° C., mass % of the dye to the mass of the entire solution; for Solubility to organic solvent: MIBK: methyl isobutyl ketone. As to the method:
Regarding the dyes (A11-1) to (A11-10) and (A11-20) to (A11-27) obtained above, solubility to organic solvent was evaluated as follows.
Three kinds of solvents, cyclohexanone, methyl isobutyl ketone (MIBK), toluene, were used as the organic solvent in the solubility test. Note that in Table 3, % is mass % of the dye to the mass of the entire solution. Further, the temperature of each organic solvent in the solubility test was 50° C.

Data set [2] is described as follows: Absorption characteristics: transmission spectrum of near-infrared absorbing layer of NIR filter (UV-visible spectrophotometer). In kind it is physicochemical. The protocol:
Further, the transmittance of the near-infrared absorbing layer can be measured by using an ultraviolet visible light spectrophotometer. For example, when the near-infrared absorbing layer is provided on a glass substrate, the transmittance is calculated by subtracting the transmittance of only the glass substrate. Note that the transmittance of light of the near-infrared absorbing layer refers to, unless otherwise stated, a ratio to light incident from a direction orthogonal to a main surface of a sample, the ratio of this light traveling straight inside the sample and transmitted to an opposite side. Further, when the transmittance is measured by making light incident from a direction other than the direction orthogonal to the main surface of the sample in the measurement of transmittance of light, an angle made by a straight line indicating the direction of the incident light to a line orthogonal to the main surface is called an incident angle.
In the condition (ii-3), the value calculated by nd(B)×(λa−λc) (hereinafter, this value may also be described as “Is value”) is a value to be an index indicating steepness of the absorption curve in the vicinity of the boundary between the visible light region and the near-infrared region with respect to a transmission spectrum of the near-infrared absorbing layer. When this value is 115 or less, the absorption curve in the vicinity of the boundary between the visible light region and the near-infrared region is steep with respect to the near-infrared absorbing layer, which can be said as preferable for the NIR filter.
That is, with respect to the transmission spectrum of the near-infrared absorbing layer, the smaller the difference (λa−λc) between the shortest wavelength λa with transmittance of 1% in the region of 650 nm to 800 nm and the wavelength λc with transmittance of 70% on a shorter wavelength side than the λa, the steeper the absorption curve in the vicinity of the boundary between the visible light region and the near-infrared region. Here, λa−λc also depends on a wavelength width having transmittance of 1% or less (λb−λa; λb is the longest wavelength with transmittance of 1% in the wavelength region of 650 nm to 800 nm). Accordingly, in order to compare and evaluate the steepness of the absorption curve in the above region of the transmission spectrum of the near-infrared absorbing layer, λb−λa is fixed to 30 nm. That is, λb−λa of the near-infrared absorbing layer which the present filter has is not limited to 30 nm.
Further, in the Is value, (λa−λc) is multiplied by the refractive index nd(B) of the transparent resin (B) contained in the near-infrared absorbing layer as a coefficient. This is to standardize the difference in steepness among resins.
Regarding transmittance (%/nm) of the NIR filters 1 to 109 obtained above, transmission spectra were measured and calculated by using an ultraviolet visible light spectrophotometer (U-4100 type spectrophotometer made by Hitachi High-Technologies Corporation). Analysis results of transmission spectra of the near-infrared absorbing layers which the NIR filters have are presented in Table 4, Table 5 and Table 6 for the NIR filters 1 to 25, 26 to 51, 52 to 75, respectively, and are presented in Table 7 and Table 8 for the NIR filters 76 to 94, 95 to 109, respectively. In Table 4 to Table 8, the ratios (parts by mass) of dyes to 100 parts by mass of the transparent resin (B) and film thicknesses of the near-infrared absorbing layers are described together.
Further, conditions of preferred transmission spectra of the near-infrared absorbing layers in the present filter and Is values obtained by the formula: nd(B)×(λa-λc) described in above (ii-3) are described in Table 4 to Table 8 together with λa in the condition (ii-1) and λb-λa in the condition (ii-2). Note that values described in Table 4 to Table 8 are values obtained by subtracting transmittance of a glass plate from transmittance of an NIR filter. […]

The mark [3] stands for this setting: transparent resin acrylic resin BR50, nd(B) 1.56, film thickness 2.3 μm.
The mark [4] stands for this setting: transparent resin polycarbonate EP5000, nd(B) 1.63, film thickness 2.4 μm.
Setting [5] is: transparent resin polycarbonate SP3810, nd(B) 1.63, film thickness 1.0 μm.
Where [6] appears, read: transparent resin polycarbonate SP3810, nd(B) 1.63, film thickness 2.8 μm.

For the compound `CCCCCCCCCC(CCCCCCC)C(=O)Nc1cc2c(cc1C1=C([O-])C(=c3cc4c(cc3NC(=O)C(CCCCCCC)CCCCCCCCC)=[N+](C)C(C)C4(C)C)C1=O)C(C)(C)C(C)N2C` (stereo not shown) [Example A11-3], in data set [1], the “Solubility to organic solvent: Cyclohexanone” value (from here on “Solubility … Cyclohexanone”) was 10%< mass %, the “Solubility to organic solvent: MIBK” value is reported as 10%< mass % and the “Solubility to organic solvent: Toluene” value came out at 10%< mass %.
On to `CCCC(C)C(=O)Nc1cc2c(cc1C1=C([O-])C(=c3cc4c(cc3NC(=O)C(C)CCC)=[N+](C)C(C)C4(C)C)C1=O)C(C)(C)C(C)N2C` (stereo not shown) [Example A11-10], for which, in data set [1], the “Solubility … Cyclohexanone” value came out at 10%< mass %, the “Solubility to organic solvent: MIBK” value worked out at 1.00% mass % and the “Solubility to organic solvent: Toluene” value stood at 3.00% mass %.
`CCCC(C)(C)C(=O)Nc1cc2c(cc1C1=C([O-])C(=c3cc4c(cc3NC(=O)C(C)(C)CCC)=[N+](C)C(C)C4(C)C)C1=O)C(C)(C)C(C)N2C` (stereo not shown) [Example A11-14]: in data set [2] (setting [3]), the “430 nm to 600 nm Average transmittance” value was 94.7%, the “Is value (nd(B)×(λa-λc))” value was found to be 110.9, the λa is recorded as 684 nm and the “λa − λc” value is listed as 71 nm. Further, in data set [2] (setting [3]), the λb stood at 714 nm, the “λb − λa” value is 30 nm, the λc amounted to 613 nm and the λmax is recorded as 700 nm. In data set [2] (setting [4]), the “430 nm to 600 nm Average transmittance” value is reported as 95.5%, the “Is value (nd(B)×(λa-λc))” value came to 112.6, the λa stood at 689 nm and the “λa − λc” value was found to be 69 nm. In data set [2] (setting [4]), the λb was found to be 719 nm, the “λb − λa” value was found to be 30 nm, the λc is given as 620 nm and the λmax came out at 705 nm. In data set [2] (setting [5]), the “430 nm to 600 nm Average transmittance” value came to 97.1%, the “Is value (nd(B)×(λa-λc))” value is reported as 112.8, the λa is 689 nm and the “λa − λc” value amounted to 69 nm. For the same compound, in data set [2] (setting [5]), the λb came out at 719 nm, the “λb − λa” value worked out at 30 nm, the λc stood at 620 nm and the λmax came to 700 nm. Moreover, in data set [2] (setting [6]), the “430 nm to 600 nm Average transmittance” value is reported as 95.6%, the “Is value (nd(B)×(λa-λc))” value is 111.2, the λa is 689 nm and the “λa − λc” value was 68 nm. In data set [2] (setting [6]), the λb stood at 719 nm, the “λb − λa” value turned out to be 30 nm, the λc is given as 621 nm and the λmax is 705 nm.
`CCCCC(CC)C(=O)Nc1cc2c(cc1C1=C([O-])C(=c3cc4c(cc3NC(=O)C(CC)CCCC)=[N+](CC)C(C)C4(C)C)C1=O)C(C)(C)C(C)N2CC` (stereo not shown) [Example A11-5]: in data set [1], the “Solubility … Cyclohexanone” value was found to be 10%< mass %, the “Solubility to organic solvent: MIBK” value worked out at 10%< mass % and the “Solubility to organic solvent: Toluene” value is reported as 10%< mass %.
In the case of `CC(C)C(=O)Nc1cc2c(cc1C1=C([O-])C(=c3cc4c(cc3NC(=O)C(C)C)=[N+](C)C(C)C4(C)C)C1=O)C(C)(C)C(C)N2C` (stereo not shown) [Example A11-26, reference compound], in data set [1], the “Solubility … Cyclohexanone” value is recorded as under 1.0% mass %, the “Solubility to organic solvent: MIBK” value is recorded as under 1.0% mass % and the “Solubility to organic solvent: Toluene” value was under 1.0% mass %.
In the case of `CCCCCCC(=O)Nc1cc2c(cc1C1=C([O-])C(=c3cc4c(cc3NC(=O)CCCCCC)=[N+](C)C(C)C4(C)C)C1=O)C(C)(C)C(C)N2C` (stereo not shown) [Example A11-23, reference compound], in data set [1], the “Solubility … Cyclohexanone” value is recorded as 2.50% mass %, the “Solubility to organic solvent: MIBK” value is on record as under 1.0% mass % and the “Solubility to organic solvent: Toluene” value stood at 2.50% mass %.
For `CCCCC(CC)C(=O)Nc1cc2c(cc1C1=C([O-])C(=c3cc4c(cc3NC(=O)C(CC)CCCC)=[N+](CCC)C(C)C4(C)C)C1=O)C(C)(C)C(C)N2CCC` (stereo not shown) [Example A11-6], in data set [1], the “Solubility … Cyclohexanone” value is reported as 10%< mass %, the “Solubility to organic solvent: MIBK” value was 10%< mass % and the “Solubility to organic solvent: Toluene” value is 10%< mass %.
For `CCN1c2cc(NC(=O)C(C)(C)CCCOc3cc(C)ccc3C)c(C3=C([O-])C(=c4cc5c(cc4NC(=O)C(C)(C)CCCOc4cc(C)ccc4C)=[N+](CC)C(C)C5(C)C)C3=O)cc2C(C)(C)C1C` (stereo not shown) [Example A11-8], in data set [1], the “Solubility … Cyclohexanone” value amounted to 10%< mass %, the “Solubility to organic solvent: MIBK” value is recorded as 10%< mass % and the “Solubility to organic solvent: Toluene” value is reported as 10%< mass %.
On to `CCCC(=O)Nc1cc2c(cc1C1=C([O-])C(=c3cc4c(cc3NC(=O)CCC)=[N+](C)C(C)C4(C)C)C1=O)C(C)(C)C(C)N2C` (stereo not shown) [Example A11-21, reference compound], for which, in data set [1], the “Solubility … Cyclohexanone” value was under 1.0% mass %, the “Solubility to organic solvent: MIBK” value is recorded as under 1.0% mass % and the “Solubility to organic solvent: Toluene” value is under 1.0% mass %.
On to `Cc1ccc(C)c(OCCCC(C)(C)C(=O)Nc2cc3c(cc2C2=C([O-])C(=c4cc5c(cc4NC(=O)C(C)(C)CCCOc4cc(C)ccc4C)=[N+](C)C(C)C5(C)C)C2=O)C(C)(C)C(C)N3C)c1` (stereo not shown) [Example A11-13], for which, in data set [2] (setting [3]), the “430 nm to 600 nm Average transmittance” value is 94.8%, the “Is value (nd(B)×(λa-λc))” value came to 110.9, the λa was 683 nm and the “λa − λc” value was 71 nm. In data set [2] (setting [3]), the λb is reported as 713 nm, the “λb − λa” value is listed as 30 nm, the λc is 612 nm and the λmax turned out to be 700 nm. In data set [2] (setting [4]), the “430 nm to 600 nm Average transmittance” value came to 96.1%, the “Is value (nd(B)×(λa-λc))” value came to 111.0, the λa is 689 nm and the “λa − λc” value amounted to 68 nm. Also, in data set [2] (setting [4]), the λb is 719 nm, the “λb − λa” value is 30 nm, the λc is 621 nm and the λmax is recorded as 705 nm. Also, in data set [2] (setting [5]), the “430 nm to 600 nm Average transmittance” value is recorded as 97.3%, the “Is value (nd(B)×(λa-λc))” value was 112.8, the λa is listed as 689 nm and the “λa − λc” value is recorded as 69 nm. In data set [2] (setting [5]), the λb is recorded as 719 nm, the “λb − λa” value amounted to 30 nm, the λc stood at 620 nm and the λmax is 700 nm. In data set [2] (setting [6]), the “430 nm to 600 nm Average transmittance” value was 95.1%, the “Is value (nd(B)×(λa-λc))” value was 112.8, the λa was found to be 689 nm and the “λa − λc” value was found to be 69 nm. In data set [2] (setting [6]), the λb is on record as 719 nm, the “λb − λa” value is listed as 30 nm, the λc is reported as 620 nm and the λmax amounted to 705 nm.
